In patent US20260256755A1, “COMBINATIONS FOR TREATMENT OF PARKINSON'S DISEASE AND OTHER PRIMARY AND SECONDARY PARKINSONIAN DISORDERS” (Kenai Therapeutics, Inc., priority 2023, published 2026):

Key:
PGC-1a = experiment: upregulation of PGC-1a, mode of action relevant to dopaminergic cells; format: cell-based; conditions: for ability to upregulate PGC-1a: target relevant to dopaminergic cells and Parkinson's disease
microglia = conditions: cited from earlier work
DA neural cells = experiment: Example 2: stress test, medium change followed by serum deprivation; format: cell-based; conditions: concentrations of 0.1 and 0.01 μM
Source text: DA neural cell survival will be measured by either counting surviving attached DA neural cells or by colorimetric determination after applying an electrocoupling reagent that responds to chemical reactions in normal cellular respiration.

cerebral cortex = experiment: Example 5: cortical lesion study, neuroprotection and inflammation; format: in vivo, long evans hooded rats; conditions: injected with DA neural cells
Source text: Animals, Surgery, and histology: lesion studies will be conducted on 15 long evans hooded rats weighing 225-275 g. Twelve of these rats will be deeply anesthetized 10 with ketamine/xylazine and placed in a sterotaxic holder. A 4×2 mm (rostrocaudal×mediolateral) skull opening will be made on the right side starting just behind the coronal suture and centered at a mediolateral position of +2.5 mm relative to bregma. A dissecting knife will be penetrated through the dura and cortex in the center of this skull opening to a depth of 1 mm. The skull defect will be filled with bone wax, the skin sutured closed, and the animal placed on a heating pad. Twenty minutes later, 0.4 cc of solution containing 100 μg of 20 peptide (^~0.4 mg/kg, 6 rats) or DMEM vehicle (6 rats) will be injected under the skin of the shoulder near the midline. The rats will be perfused 4 days later and their brains processed for histology and immunohistochemistry as in previous studies. Three rats will be sacrificed without surgery or treatment. […] The density of ED-1+ ameboid microglia in the perilesion parencyma wound will be calculated after experimentally blinded counting of 4 fields (dorsal and ventral margins of the wound) in 2 sections through the lesion.

## CC(C)(Oc1ccc(CCNC(=O)c2ccc(Cl)cc2)cc1)C(=O)O [benzafibrate]
PGC-1a
  ability to upregulate PGC-1a: unable to upregulate PGC-1a

## CCOC(=O)C(C)(C)Oc1ccc(Cl)cc1 [clorofibrate]
PGC-1a
  ability to upregulate PGC-1a: unable to upregulate PGC-1a

## CC(C)OC(=O)C(C)(C)Oc1ccc(C(=O)c2ccc(Cl)cc2)cc1 [fenofibrate]
PGC-1a; mode of action relevant to dopaminergic cells and Parkinson's disease
  activity (active or not): active

## FC(F)(F)c1ccc(CNc2ccc(Cc3c[nH]c4ncc(Cl)cc34)cn2)cn1 [Pexidartinib]
microglia; healthy brain
  depletion of the microglia population: fast depletion of the microglia population
microglia; in vivo
  survival of microglia: inhibit the survival of microglia
DA neural cells
  rescue of DA neural cells: rescue DA neural cells
Cerebral cortex
  accumulation of inflammatory cells in the parenchyma: inhibited
  disruption of the cerebral cortex: inhibited
